Test results from patent publication US20140141459A1, “PENTRAXIN 3 ASSOCIATION WITH ASTHMA” (THE REGENTS OF THE UNIVERSITY OF MICHIGAN, priority 2011, published 2014).

How the values were obtained:
[1] = tested on: A. fumigatus-induced asthma model; assay: Bronchial hyper-responsiveness (Buxco plethysmograph, methacholine) in A. fumigatus-induced asthma model; type: in vivo, mice; settings: vs PBS
Method: (§1) C57BL/6 mice were sensitized via intraperitoneal (i.p.) and subcutaneous (s.c.) route with a commercially available preparation of soluble A. fumigatus antigens dissolved in 0.2 ml of IFA. After three intranasal instillations of Aspergillus antigen, each spaced one-week apart, each mouse received 1×10^7 swollen conidia suspended in 30 μl of PBS tween 80 (0.1%; vol/vol) via intratracheal (i.t.) administration. All mice were euthanized with an overdose of Nembutal and lung homogenates were collected immediately following euthanization. Mouse PTX3 ELISA was completed on lung homogenate supernatant.
(§2) A. fumigatus-Induced Asthma Model was Established as Described in Example 1.
(§3) Mice were treated every other day from day 0 to 15 or from day 15 to 30 with PBS or human PTX3 (R&D System, Minneapolis, Minn., USA; 10 μg/injection). At days 15 and 30 after conidia challenge, bronchial hyper-responsiveness was assessed in a Buxco™ plethysmograph (Buxco, Troy, N.Y.) after intravenous methacholine injection (420 μg/Kg). Other parameters were determined after the assessment of airway hyper-responsiveness.

[2] = tested on: A. fumigatus-induced asthma model; assay: Cytokine levels in whole lung homogenate in A. fumigatus-induced asthma model; type: in vivo, mice; settings: day 30 after conidia challenge
Method: as §1, §2, §3
To investigate whether the treatment with exogenous PTX3 modified the cytokine profile in asthma, the levels of different cytokines in whole lungs homogenate from PBS and PTX3-treated mice at day 30 after conidia challenge were measured.

PTX3: human PTX3 (pentraxin 3) polypeptide from R&D System, administered to mice at 10 μg/injection
airway resistance at day 15 after conidia ([1]; treated every other day from day 0 to 15, 10 μg/injection): significantly increased
airway resistance at day 30 after conidia ([1]; treated every other day from day 15 to 30, 10 μg/injection): significantly decreased
increase in IL-4 ([2]; vs PBS treatment): 1.8 fold
increase in IL-10 ([2]; vs PBS treatment): 1.8 fold
increase in IL-17 ([2]; vs PBS treatment): 3.7 fold
reduction in IFN-γ ([2]; vs PBS treatment): 1.8 fold
IL-18 levels ([2]; vs control group): significantly increased
increase in CCL22 (MDC) levels ([2]; vs control group): 1.7 fold
increase in IL-1α levels ([2]; vs control group): 1.7 fold
increase in IL-1β levels ([2]; vs control group): 1.7 fold
